The record followed here is patent publication US20230085307A1, “PYRIDAZINONE COMPOUND AND HERBICIDE” (NISSAN CHEMICAL CORPORATION, priority 2019, published 2023).

Regarding `COc1ccccc1-c1sc2ccc(I)cc2c1-c1c(OC)c(C)nn(C)c1=O` [Compound No. 2-131, 4-(5-iodo-2-(2-methoxyphenyl)benzo[b]thiophen-3-yl)-5-methoxy-2,6-dimethylpyridazin-3(2H)-one], the melting point (commonly the temperature of the solid-liquid transition) fell in the range of 161 to 163 °C.

As to `COc1ccccc1-c1sc2ccc(N)cc2c1-c1c(OC)c(C)nn(C)c1=O` [Compound No. 2-174, 4-(5-amino-2-(2-methoxyphenyl)benzo[b]thiophen-3-yl)-5-methoxy-2,6-dimethylpyridazin-3(2H)-one], the melting point was 219 to 221 °C.
